Data published in article PMC6874683, “Pyrrothiogatain acts as an inhibitor of GATA family proteins and inhibits Th2 cell differentiation in vitro” (Scientific Reports, 2019).

Test system: Th2 cells
Assay: Cytokine production of in vitro differentiated Th2 cells restimulated for 16 h (ELISA)
Format: cell-based, mouse
Details: restimulated 16 h, 0 to 100 µM
Description: To clarify the effects of pyrrothiogatain on Th2 cell differentiation, naive CD4 T cells were purified and cultured under Th2 conditions in the presence or absence of pyrrothiogatain for 5 days, and then the Th2 cell differentiation status was determined by intracellular staining. The generation of IL-4-, IL-5-, and IL-13-producing Th2 cells was repressed by treatment with pyrrothiogatain (Fig. 5A). Decreased production and mRNA expression of IL-4, IL-5 and IL-13 were confirmed using ELISA and RT-qPCR, respectively (Fig. 5B,C). […] Next, we treated in vitro differentiated Th2 cells with pyrrothiogatain to test the effect of pyrrothiogatain on Th2 cytokine production. Total CD4^+ cells were cultured under Th2 conditions for 5 days, and then the Th2 cells were restimulated in the presence or absence of pyrrothiogatain for 16 h. […]
Figure 5 Pyrrothiogatain inhibits Th2 cell differentiation and production of Th2 cytokines. […] (B) Cytokine production induced in the pyrrothiogatain treated Th2 cells shown in panel (A) was determined by ELISA. (C) Quantitative RT-PCR analysis of the pyrrothiogatain-treated Th2 cells shown in panel (A). […] The amounts of IL-4, IL-5 and IL-13 in the culture supernatants were determined by ELSA. In (B), (C) and (E), all data are expressed as individual points of three independent experiments with error bars indicating standard deviation. […]

SMILES: Cc1ccc(C)n1-c1ccsc1C(=O)O [Pyrrothiogatain, 3-(2,5-dimethyl-1H-pyrrol-1-yl)thiophene-2-carboxylic acid]
- IL-4, IL-5 and IL-13 production of restimulated Th2 cells: decreased
